In patent publication US4820834A, “Benzodiazepine analogs” (priority 1987, dated 1989):
Like-named read-outs stand apart in the source and are kept apart here.

Legend:
[1] = molecular target: T1, CCK receptor (brain, cerebral cortex) (Cavia porcellus, UniProt H0VZC5); experiment: biochemical; type: binding, Male Hartley guinea pigs
T1 construct: Cerebral cortex was dissected and used as a receptor source; from tissue; host or cells: guinea pig cerebral cortex membranes (male Hartley)
T1 sequence (H0VZC5 1-426): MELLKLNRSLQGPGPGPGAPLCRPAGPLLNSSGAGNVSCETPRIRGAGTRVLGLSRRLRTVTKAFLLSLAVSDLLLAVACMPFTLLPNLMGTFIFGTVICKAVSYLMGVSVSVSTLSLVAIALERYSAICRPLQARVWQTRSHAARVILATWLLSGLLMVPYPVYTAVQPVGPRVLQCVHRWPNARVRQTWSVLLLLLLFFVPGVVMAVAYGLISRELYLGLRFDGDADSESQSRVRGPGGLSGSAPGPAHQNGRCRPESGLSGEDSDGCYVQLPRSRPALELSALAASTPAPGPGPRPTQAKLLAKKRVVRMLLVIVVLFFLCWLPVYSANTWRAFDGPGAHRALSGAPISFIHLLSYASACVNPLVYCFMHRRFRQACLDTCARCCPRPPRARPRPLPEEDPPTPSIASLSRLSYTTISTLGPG
Method: 2. CCK Recepto Binding (Brain)
CCK-33 was radiolabeled and the binding was Performed according to the description for the Pancreas method with modifications according to Saito et al., J. Neurochem.
Cerebral cortex was dissected and used as a receptor source. Each gram of fresh guinea pig brain tissue was homogenized in 10 ml of Tris/Trizma buffer with a Brinkman polytron PT-10. The homogenates were centrifuged at 42,000 g for 15 minutes. Pellets were resuspended in Tris Buffer, centrifuged as above and resuspended in 200 volumes of binding assay buffer (10 mM N-2-hydroxyethyl-piperazine-N'-2-ethane sulfonic acid (HEPES), 5 mM MgCl2, 0.25 mg/ml bacitracin, 1 mM ethylene glycol-bis-(β-aminoethylether-N,N'-tetraacetic acid) (EGTA), and 0.4% bovine serum albumin (BSA)). […] All assays were run in duplicate or triplicate. The reaction mixtures were incubated at 25° C. for 2 hours and centrifuged in a Beckman Microfuge (4 minutes) immediately after adding 1 ml of ice-cold incubation buffer. The supernatant was aspirated and discarded, pellets were counted with a Beckman gamma 5000.

[2] = molecular target: T2, Gastrin receptor (gastric glands) (Cavia porcellus, UniProt H0VZC5); experiment: Gastrin Receptor Binding in Guinea Pig Gastric Glands; parameters: species or system guinea pig (male Hartley)
T2 construct: The washed guinea pig gastric glands prepared as above were resuspended; from tissue; host or cells: guinea pig gastric mucosal glands (male Hartley)
T2 sequence (H0VZC5 1-426): T1 sequence (H0VZC5 1-426)

[3] = IC50 ^125 I-CCK Brain, guinea pig cerebral cortex, ^125 I-CCK-33, 25° C., 2 hours
[4] = ^125 I-gastrin, 25° C., 30 minutes, read-out: IC50 ^125 I-Gastrin Gastric Glands
[5] = IC50 ^125 I-Gastrin Gastric Glands, 25° C., 30 minutes

SMILES | IC50 [1, 3] | IC50 [2, 5] | other results
CC(C)(C)OC(=O)N[C@@H](Cc1ccccc1)C(=O)NC1N=C(c2ccccc2)c2ccccc2NC1=O (mixture of isomers) [Example 82, 3(RS)-(2(S)-tert-Butoxycarbonylamino-3-phenylpropanoyl-amino)-1,3-dihydro-5-phenyl-2H-1,4-benzodiazepin-2-one] | 12 µM |  | IC50 [2, 4]: > 100 µM
CN1C(=O)C(NC(=O)[C@H](Cc2ccccc2)NC(=O)OC(C)(C)C)N=C(c2ccccc2)c2ccccc21 (mixture of isomers) [Example 83, 3(RS)-(2(S)-tert-Butoxycarbonylamino-3-phenylpropanoyl-amino)-1,3-dihydro-1-methyl-5-phenyl-2H-1,4-benzodi-azepin-2-one] |  |  | IC50 ([1]; guinea pig cerebral cortex, ^125 I-CCK-33, 25° C., 2 hours; read-out: IC50 ^125 I-CCK Brain): 13 µM; IC50 [2, 4]: 26 µM
O=C(NCC1N=C(c2ccccc2F)c2ccccc2NC1=O)OCc1ccccc1 (racemic) [Example 66, 1,3-Dihydro-5-(2'-fluorophenyl)-3(RS)-(benzyloxycarbonyl)aminomethyl-2H-1,4-benzodiazepin-2-one] | 100 µM | 7.4 µM | 
O=C(NCC1N=C(c2ccccc2F)c2ccccc2NC1=O)c1ccsc1 (racemic) [Example 67, 1,3-Dihydro-5-(2'-fluorophenyl)-3(RS)-(3-thiophene-carbonyl)aminomethyl-2H-1,4-benzodiazepin-2-one] | 100 µM | 47 µM | 
O=C(NCC1N=C(c2ccccc2F)c2ccccc2NC1=O)c1cc2ccccc2[nH]1 (racemic) [Example 68, 1,3-dihydro-5-(2-fluorophenyl)-3(RS)-(2-indolecarbonylaminomethyl)-2H-1,4-benzodiazepin-2-one] | 30 µM | > 100 µM | 
O=C1Nc2ccccc2C(c2ccccc2F)=NC1CNCC1N=C(c2ccccc2F)c2ccccc2NC1=O (racemic) [Example 69, 1,3-Dihydro-3'-(RS)-[3'-(RS)-(1,3-dihydro-5-(2'-fluorophenyl)-2H-1,4-benzodiazepin-2-one)-3-yl]methylaminomethyl-5-(2'-fluorophenyl)-2H-1,4-benzodiazepin-2-one] | > 100 µM | 350 µM | 
O=C(NC1N=C(c2ccccc2)c2ccccc2NC1=O)c1cc2ccccc2[nH]1 (racemic) [Example 73, 3(RS)-1,3-Dihydro-(2-indolecarbonylamino)-5-phenyl-2H-1,4-benzodiazepin-2-one] | 8 µM | 4 µM | 
O=C1Nc2ccccc2C(c2ccccc2)=NC1NCCc1c[nH]c2ccccc12 (racemic) [Example 74, 1,3-Dihydro-3(RS)-[2-(3-indolyl)ethyl]amino-5-phenyl-2H-1,4-benzodiazepin-2-one] | 100 µM | > 100 µM | 
O=C(CCc1c[nH]c2ccccc12)NC1N=C(c2ccccc2)c2ccccc2NC1=O (racemic) [Example 75, 3(RS)-[3-(3-indolyl)propionylamino]-1,3-dihydro-5-phenyl-2H-1,4-benzodiazepin-2-one] | 100 µM | 4.7 µM | 
O=C(Cc1c[nH]c2ccccc12)NC1N=C(c2ccccc2)c2ccccc2NC1=O (racemic) [Example 76, 3(RS)-(3-indoleacetylamino)-1,3-dihydro-5-phenyl-2H-1,4-benzodiazepin-2-one] | 11 µM | 32 µM | 
O=C(O)CN1C(=O)C(NC(=O)c2cc3ccccc3[nH]2)N=C(c2ccccc2)c2ccccc21 (racemic) [Example 78, 1-Carboxymethyl-1,3-dihydro-3(RS)-(2-indolearbonyl-amino)-5-phenyl-2H-1,4-benzodiazepin-2-one] | 5.5 µM | 0.65 µM | 
CN1C(=O)C(NC(=O)c2ccc(Cl)cc2)N=C(c2ccccc2F)c2ccccc21 (racemic) [Example 80, 1,3-Dihydro-1-methyl-3(RS)-(4-chlorophenylcarbonyl)-amino-5-(2-fluoroohenyl)-2H-1,4-benzodiazeoin-2-one] | 3.4 µM |  | IC50 [2, 4]: 2.9 µM
CN1C(=O)C(NC(=O)c2cc3ccccc3[nH]2)N=C(c2ccccc2F)c2ccccc21 (racemic) [Example 81a, 1,3-Dihydro-5-(2-fluorophenyl)-3(RS)-(2-indolecarbonyl-amino)-1-methyl-2H-1,4-benzodiazepin-2-one] | 0.3 µM |  | IC50 [2, 4]: 0.19 µM
CN1C(=O)C(NC(=O)c2cc3ccccc3n2C)N=C(c2ccccc2F)c2ccccc21 (racemic) [Example 81b, 1,3-Dihydro-5-(2-fluorophenyl)-1-methyl-3(RS)-[2'-(1-methylindole)carbonylamino]-2H-1,4-benzodiazepin-2-one] | 1 µM | 1.6 µM | 
O=C(CCCc1c[nH]c2ccccc12)NC1N=C(c2ccccc2)c2ccccc2NC1=O (racemic) [Example 97, 3(RS)-[4-(3-Indole)butyrylamino]-1,3-dihydro-5-phenyl-2H-1,4-benzodiazepin-2-one] | > 100 µM | 200 µM | 
O=C(NCC1CNc2ccccc2C(c2ccccc2F)=N1)OCc1ccccc1 (racemic) [Example 98, 1,3-Dihydro-3(RS)-(benzyloxycarbonyl)aminomethyl-5-(2-fluorophenyl)-2H-1,4-benzodiazepine] | 100 µM | 86 µM | 
O=C(NCC1CNc2ccccc2C(c2ccccc2F)=N1)c1ccsc1 (racemic) [Example 99, 1,3-Dihydro-3(RS)-[3'-(thiophene)carbonyl]amino-methyl-5-(2-fluorophenyl)-2H-1,4-benzodiazepine] | 74 µM | 80 µM | 
O=C(NCC1CNc2ccccc2C(c2ccccc2F)=N1)c1cc2ccccc2[nH]1 (racemic) [Example 100, 1,3-Dihydro-3(RS)-(2'-indolecarbonyl)aminomethyl-5-(2-fluorophenyl)-2H-1,4-benzodiazepine] |  |  | IC50 ([1]; read-out: IC50 ^125 I-CCK Brain; guinea pig cerebral cortex, ^125 I-CCK-33, 25° C., 2 hours): 34 µM; IC50 ([2]; read-out: IC50 ^125 I-Gastrin Gastric Glands, 25° C., 30 minutes): 22 µM
O=C(NC1N=C(c2ccccc2F)c2ccccc2NC1=O)c1cc2ccccc2[nH]1 (racemic) [Example 105, 1,3-Dihydro-5-(2-fluorophenyl)-3-(RS)-(2-indolecarbonylamino)-2H-1,4-benzodiazeoin-2-one] | 3 µM | 4.6 µM | 
O=C(NC1N=C(c2ccccc2F)c2ccccc2NC1=O)c1ccc([N+](=O)[O-])cc1 (racemic) [Example 106, 1,3-Dihydro-3-(RS)-(4-nitrophenlcarbonyl)amino-5-(2-fluorophenyl)-2H-1,4-benzodiazepin-2-one] | > 50 µM | > 10 µM | 
O=C(NC1N=C(c2ccccc2F)c2ccccc2NC1=O)c1ccsc1 (racemic) [Example 108, 1,3-Dihydro-5-(2-fluorophenyl)-3-(RS)-(3-thiophenecarbonylamino)-2H-1,4-benzodiazepin-2-one] | > 50 µM | > 10 µM | 
O=C(NC1N=C(c2ccccc2)c2ccccc2NC1=O)c1c[nH]c2ccccc12 (racemic) [Example 109, 1,3-Dihydro-3-(RS)-(3-indolecarbonylamino)-5-phenyl-2H-1,4-benzodiazepin-2-one] | 8.4 µM | 18 µM | 
O=C(Cc1cccc2sccc12)NC1N=C(c2ccccc2F)c2ccccc2NC1=O (racemic) [Example 110, 1,3-Dihydro-3-(RS)-(4-thianaPhtheneacetyl)amino-5-(2-fluorophenyl)-2H-1,4-benzodiazepin-2-one] | 3.3 µM | 3.9 µM | 
O=C(O)CN1C(=O)C(NC(=O)c2cc3ccccc3[nH]2)N=C(c2ccccc2F)c2ccccc21 (racemic) [Example 113, 1-Carboxymethyl-1,3-dihydro-5-(2-fluorophenyl)-3(RS)-(2-indolecarbonylamino)-2H-1,4-benzodiazepin-2-one] | 5.6 µM | 0.39 µM | 
CC(C)C[C@@H](NC(=O)OC(C)(C)C)C(=O)N1CC(C[C@H]2N=C(c3ccccc3F)c3ccccc3NC2=O)c2ccccc21 (stereo partly drawn) [Example 22, 1,3-Dihydro-5-(2-fluorophenyl)-3(R)-[3'-β-(1'-t-Boc-D-leucyl)-indolenyl]methyl-2H-1,4-benzodiazepin-2-one] | > 100 µM |  | 
CC(C)C[C@H](NC(=O)OC(C)(C)C)C(=O)N1CC(C[C@H]2N=C(c3ccccc3F)c3ccccc3NC2=O)c2ccccc21 (stereo partly drawn) [Example 23, 1,3-Dihydro-5-(2-fluorophenyl)-3(R)-[3'-α-(1'-t-Boc-L-leucyl)-indolenyl]methyl-2H-1,4-benzodiazepin-2-one] | > 100 µM |  | 
